The target of the assay is Recombinant human ULK1 (1-649) (Homo sapiens (Human), UniProt O75385). The assay can be described thus: ULK1 ADP Glo kinase activity assay (MBP substrate). Conditions: 25° C., 40 minutes, read-out: ULK1 biochemical IC50. The method, then:
Recombinant human ULK1 (1-649) protein expressed in Sf9 insect cells was obtained from SignalChem (Vancouver, BC), catalog #U01-11G. Active kinase was purified via N-terminal GST tag to >85% purity.
ADP GLO Kinase Assay Reagents were obtained from Promega Corp (Madison, WI), catalog #V9104.
MBP (myelin basic protein) substrate, bovine, purified, was obtained from Sigma (St. Louis, MO), catalog #M1891.
ULK1 inhibitor potency was determined using the luminescent ADP Glo Kinase Assay (Promega), a universal ADP detection system that measures kinase activity by quantifying the amount of ADP produced during a kinase reaction. ULK1 kinase reactions are performed in a standard 96-well microplate (20 uL reaction volume) at 25° C. for 40 minutes in the presence or absence of the test compound (12-point dilution series starting at 10 uM). Addition of MBP substrate and ATP initiates the kinase reaction.
The standard ADP Glo assay is performed in two steps. In step one, following the kinase reaction, an equal volume of ADP-Glo™ Reagent (20 uL) is added to terminate the kinase reaction and deplete the remaining ATP. In the second step, the Kinase Detection Reagent (10 uL) is added to simultaneously convert ADP to ATP and allow the newly synthesized ATP to be measured using a luciferase/luciferin reaction. Step two of the ADP Glo assay is performed in a white 384-well plate (20 uL final volume). Thirty minutes after the addition of the Detection reagent, light generated from the luciferase reaction is measured (1 second exposure) using a microplate compatible luminometer (CLARIOstar, BMG Labtech).
Inhibition of ULK1 kinase activity is determined for each test compound by comparison to DMSO only control wells. Inhibitor IC50 was calculated by plotting the change in luminescence after 30 minutes (response) versus inhibitor concentration (in log molar) then applying the four-parameter variable slope curve fit (GraphPad Prism). Inhibition of ULK1 in biochemical assay is found in Table 3.
Background: In ADP-Glo the light output rises with the ADP produced.

Our source for the IC50 values is patent US20250144094A1 (Erasca, Inc., priority 2021, published 2025).

A value given as a limit tells only on which side of the number the result lay.

As a reminder, the IC50 is the concentration at which inhibition is half-maximal.

Chain of Recombinant human ULK1 (1-649) (O75385 1-649): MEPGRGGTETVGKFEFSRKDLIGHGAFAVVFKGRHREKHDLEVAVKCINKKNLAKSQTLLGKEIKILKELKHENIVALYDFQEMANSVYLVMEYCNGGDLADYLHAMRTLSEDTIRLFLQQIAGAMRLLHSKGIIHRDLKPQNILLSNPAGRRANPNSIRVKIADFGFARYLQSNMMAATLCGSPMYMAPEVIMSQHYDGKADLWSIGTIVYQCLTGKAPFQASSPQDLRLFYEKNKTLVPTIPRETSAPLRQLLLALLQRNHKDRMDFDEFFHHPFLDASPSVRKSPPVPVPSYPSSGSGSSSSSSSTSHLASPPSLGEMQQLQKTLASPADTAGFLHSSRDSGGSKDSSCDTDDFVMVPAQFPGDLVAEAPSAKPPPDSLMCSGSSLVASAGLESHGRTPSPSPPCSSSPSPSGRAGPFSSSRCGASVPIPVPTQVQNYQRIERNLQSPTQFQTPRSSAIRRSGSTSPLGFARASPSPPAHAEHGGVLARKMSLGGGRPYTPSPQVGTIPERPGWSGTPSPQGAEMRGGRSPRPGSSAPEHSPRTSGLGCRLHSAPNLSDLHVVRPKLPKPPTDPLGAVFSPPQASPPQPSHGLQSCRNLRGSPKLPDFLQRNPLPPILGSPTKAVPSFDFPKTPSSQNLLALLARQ

As to `O=C1NCCNc2sc(-c3nc(Nc4cc5c(cc4Cl)CNCC5)ncc3C(F)(F)F)cc21` [Example 53, 7-(2-((7-chloro-1,2,3,4-tetrahydroisoquinolin-6-yl)amino)-5-(trifluoromethyl)pyrimidin-4-yl)-1,2,3,4-tetrahydro-5H-thieno[2,3-e][1,4]diazepin-5-one], the 50% inhibitory concentration (IC50) is at most 0.01 µM.

For the molecule `O=S(=O)(CCN1CCOCC1)c1csc(-c2nc(Nc3cc4c(cc3Cl)CNCC4)ncc2C(F)(F)F)c1` [Example 54, 7-chloro-N-(4-(4-((2-morpholinoethyl)sulfonyl)thiophen-2-yl)-5-(trifluoromethyl)pyrimidin-2-yl)-1,2,3,4-tetrahydroisoquinolin-6-amine], the half-maximal inhibitory concentration (IC50) was in the range of 0.1 to 0.5 µM.

As to `COCCOc1sc(-c2nc(Nc3cc4c(cc3Cl)CNCC4)ncc2C(F)(F)F)cc1C(N)=O` [Example 55, 5-(2-((7-chloro-1,2,3,4-tetrahydroisoquinolin-6-yl)amino)-5-(trifluoromethyl)pyrimidin-4-yl)-2-(2-methoxyethoxy)thiophene-3-carboxamide], the IC50 was at most 0.01 µM.

For `COCCOc1sc(-c2nc(Nc3cc4c(cc3Cl)CNCC4)ncc2C(F)(F)F)cc1S(C)(=O)=O` [Example 56, 7-chloro-N-(4-(5-(2-methoxyethoxy)-4-(methylsulfonyl)thiophen-2-yl)-5-(trifluoromethyl)pyrimidin-2-yl)-1,2,3,4-tetrahydroisoquinolin-6-amine], the IC50 was at most 0.01 µM.

Take `COCCOc1sc(-c2nc(Nc3cc4c(cc3Cl)CN(C)CC4)ncc2C(F)(F)F)cc1S(C)(=O)=O` [Example 57, 7-chloro-N-(4-(5-(2-methoxyethoxy)-4-(methylsulfonyl)thiophen-2-yl)-5-(trifluoromethyl)pyrimidin-2-yl)-2-methyl-1,2,3,4-tetrahydroisoquinolin-6-amine]: the IC50 is at most 0.01 µM.

Turning to `CS(=O)(=O)c1cc(-c2nc(Nc3cc4c(cc3Cl)CNCC4)ncc2C(F)(F)F)sc1C(=O)N1CCOCC1` [Example 58, (5-(2-((7-chloro-1,2,3,4-tetrahydroisoquinolin-6-yl)amino)-5-(trifluoromethyl)pyrimidin-4-yl)-3-(methylsulfonyl)thiophen-2-yl)(morpholino)methanone], the IC50 was in the range of 0.1 to 0.5 µM.

Take `CS(=O)(=O)c1cc(-c2nc(Nc3cc4c(cc3Cl)CNCC4)ncc2C(F)(F)F)sc1C(N)=O` [Example 59, 5-(2-((7-chloro-1,2,3,4-tetrahydroisoquinolin-6-yl)amino)-5-(trifluoromethyl)pyrimidin-4-yl)-3-(methylsulfonyl)thiophene-2-carboxamide]: the concentration for half-maximal inhibition (IC50) was at most 0.01 µM.

For the molecule `O=S1(=O)CCCOc2sc(-c3nc(Nc4cc5c(cc4Cl)CNCC5)ncc3C(F)(F)F)cc21` [Example 60, 2-(2-((7-chloro-1,2,3,4-tetrahydroisoquinolin-6-yl)amino)-5-(trifluoromethyl)pyrimidin-4-yl)-6,7-dihydro-5H-thieno[2,3-b][1,4]oxathiepine 4,4-dioxide], the concentration for half-maximal inhibition (IC50) was at most 0.01 µM.

For the molecule `CN1CCc2cc(Nc3ncc(C(F)(F)F)c(-c4cc(S(C)(=O)=O)c(C(=O)N5CCOCC5)s4)n3)c(Cl)cc2C1` [Example 61, (5-(2-((7-chloro-2-methyl-1,2,3,4-tetrahydroisoquinolin-6-yl)amino)-5-(trifluoromethyl)pyrimidin-4-yl)-3-(methylsulfonyl)thiophen-2-yl)(morpholino)methanone], the IC50 is 0.1 to 0.5 µM.

Regarding `CS(=O)(=O)c1cc(-c2nc(Nc3cc4c(cc3Cl)CNCC4)ncc2C(F)(F)F)sc1CN1CCOCC1` [Example 62, 7-chloro-N-(4-(4-(methylsulfonyl)-5-(morpholinomethyl)thiophen-2-yl)-5-(trifluoromethyl)pyrimidin-2-yl)-1,2,3,4-tetrahydroisoquinolin-6-amine], the IC50 lay within 0.01 to 0.05 µM.

As for `CN1CCc2cc(Nc3ncc(C(F)(F)F)c(-c4cc(S(C)(=O)=O)c(C(N)=O)s4)n3)c(Cl)cc2C1` [Example 63, 5-(2-((7-Chloro-2-methyl-1,2,3,4-tetrahydroisoquinolin-6-yl)amino)-5-(trifluoromethyl)pyrimidin-4-yl)-3-(methylsulfonyl)thiophene-2-carboxamide], the concentration for half-maximal inhibition (IC50) was at most 0.01 µM.

As to `O=S1(=O)CCNCc2sc(-c3nc(Nc4cc5c(cc4Cl)CNCC5)ncc3C(F)(F)F)cc21` [Example 64, 7-(2-((7-chloro-1,2,3,4-tetrahydroisoquinolin-6-yl)amino)-5-(trifluoromethyl)pyrimidin-4-yl)-2,3,4,5-tetrahydrothieno[2,3-f][1,4]thiazepine 1,1-dioxide], the half-inhibitory concentration (IC50) was at most 0.01 µM.

For the molecule `COCCOc1sc(-c2nc(Nc3cc4c(cc3Cl)CN(C)CC4)ncc2C(F)(F)F)cc1C(N)=O` [Example 66, 5-(2-((7-chloro-2-methyl-1,2,3,4-tetrahydroisoquinolin-6-yl)amino)-5-(trifluoromethyl)pyrimidin-4-yl)-2-(2-methoxyethoxy)thiophene-3-carboxamide], the IC50 was at most 0.01 µM.

`CN1CCc2cc(Nc3ncc(C(F)(F)F)c(-c4cc(S(C)(=O)=O)c(CN5CCOCC5)s4)n3)c(Cl)cc2C1` [Example 67, 7-chloro-2-methyl-N-(4-(4-(methylsulfonyl)-5-(morpholinomethyl)thiophen-2-yl)-5-(trifluoromethyl)pyrimidin-2-yl)-1,2,3,4-tetrahydroisoquinolin-6-amine]: the IC50 was in the range of 0.01 to 0.05 µM.

Consider `CSc1cc2c(cc1Nc1ncc(C(F)(F)F)c(-c3cc(S(C)(=O)=O)cs3)n1)CCN(C)C2` [Example 68, 2-methyl-N-(4-(4-(methylsulfonyl)thiophen-2-yl)-5-(trifluoromethyl)pyrimidin-2-yl)-7-(methylthio)-1,2,3,4-tetrahydroisoquinolin-6-amine], for which the IC50 was at most 0.01 µM.

For `CN1CCc2cc(Nc3ncc(C(F)(F)F)c(-c4cc5c(s4)CNCCS5(=O)=O)n3)c(Cl)cc2C1` [Example 69, 7-(2-((7-chloro-2-methyl-1,2,3,4-tetrahydroisoquinolin-6-yl)amino)-5-(trifluoromethyl)pyrimidin-4-yl)-2,3,4,5-tetrahydrothieno[2,3-f][1,4]thiazepine 1,1-dioxide], the IC50 is at most 0.01 µM.

Consider `O=C1NCCOc2sc(-c3nc(Nc4cc5c(cc4Cl)CNCC5)ncc3C(F)(F)F)cc21` [Example 71, 7-(2-((7-chloro-1,2,3,4-tetrahydroisoquinolin-6-yl)amino)-5-(trifluoromethyl)pyrimidin-4-yl)-3,4-dihydrothieno[3,2-f][1,4]oxazepin-5(2H)-one], for which the IC50 was at most 0.01 µM.

`CCc1cc2c(cc1Nc1ncc(C(F)(F)F)c(-c3cc(S(C)(=O)=O)cs3)n1)CNC2` [Example 72, 6-ethyl-N-(4-(4-(methylsulfonyl)thiophen-2-yl)-5-(trifluoromethyl)pyrimidin-2-yl)isoindolin-5-amine]: the IC50 is at most 0.01 µM.

With `CS(=O)(=O)c1csc(-c2nc(Nc3cc4c(cc3Cl)CNC4)ncc2C(F)(F)F)c1` [Example 73, 6-chloro-N-(4-(4-(methylsulfonyl)thiophen-2-yl)-5-(trifluoromethyl)pyrimidin-2-yl)isoindolin-5-amine], the half-inhibitory concentration (IC50) was at most 0.01 µM.

Take `CS(=O)(=O)c1cc(-c2nc(Nc3cc4c(cc3Cl)CNCC4)ncc2C(F)(F)F)sc1C1=CCOCC1` [Example 75, 7-chloro-N-(4-(5-(3,6-dihydro-2H-pyran-4-yl)-4-(methylsulfonyl)thiophen-2-yl)-5-(trifluoromethyl)pyrimidin-2-yl)-1,2,3,4-tetrahydroisoquinolin-6-amine]: the IC50 is at most 0.01 µM.

For `CCc1cc2c(cc1Nc1ncc(C(F)(F)F)c(-c3cc(S(C)(=O)=O)cs3)n1)CN(C)C2` [Example 76, 6-ethyl-2-methyl-N-(4-(4-(methylsulfonyl)thiophen-2-yl)-5-(trifluoromethyl)pyrimidin-2-yl)isoindolin-5-amine], the half-maximal inhibitory concentration (IC50) was 0.01 to 0.05 µM.

Consider `CS(=O)(=O)c1cc(-c2nc(Nc3cc4c(cc3Cl)CNCC4)ncc2C(F)(F)F)sc1C1=CCS(=O)(=O)CC1` [Example 78, 4-(5-(2-((7-chloro-1,2,3,4-tetrahydroisoquinolin-6-yl)amino)-5-(trifluoromethyl)pyrimidin-4-yl)-3-(methylsulfonyl)thiophen-2-yl)-3,6-dihydro-2H-thiopyran 1,1-dioxide], for which the IC50 is at most 0.01 µM.

Regarding `Cc1c(S(C)(=O)=O)csc1-c1nc(Nc2cc3c(cc2Cl)CNCC3)ncc1C(F)(F)F` [Example 79, 7-chloro-N-(4-(3-methyl-4-(methylsulfonyl)thiophen-2-yl)-5-(trifluoromethyl)pyrimidin-2-yl)-1,2,3,4-tetrahydroisoquinolin-6-amine], the IC50 was in the range of 0.1 to 0.5 µM.

With `CN1Cc2cc(F)c(Nc3ncc(C(F)(F)F)c(-c4cc(S(C)(=O)=O)cs4)n3)cc2C1` [Example 80, 6-fluoro-N-[4-(4-methanesulfonylthiophen-2-yl)-5-(trifluoromethyl)pyrimidin-2-yl]-2-methyl-2,3-dihydro-1H-isoindol-5-amine], the IC50 was at most 0.01 µM.
